{"source": "patent US20110268789A1", "about": "“USE OF PITUITARY ADENYLATE CYCLASE-ACTIVATING POLYPEPTIDE (PACAP) AND PACAP ANALOGS AS ADJUNCTIVE TREATMENTS WITH ANTICANCER AGENTS” (priority 2008, published 2011)", "key": {"[1]": {"test_system": "rat hippocampal neuron/glia co-cultures", "conditions": "cited from earlier work"}, "[2]": {"conditions": "normal human volunteers and a patient with multiple myeloma; cited from earlier work"}, "[3]": {"test_system": "Jurkat human T-lymphocyte leukemia cells", "assay": "Etoposide-induced apoptotic cell death of leukemia cells", "assay_type": "cell-based", "conditions": "Jurkat cells", "protocol": "The Jurkat human T-lymphocyte leukemia cells were cultured in RPMI 1640 medium supplemented with 10% non-inactivated fetal bovine serum. The effects of PACAP27 and PACAP38 on apoptotic cell death was assessed by the quantitative determination of cytoplasmic histone-associated DNA-fragmentation (mono- and oligonucleosomes) after exposure to etoposide for 48 hours. Each value represents the mean plus/minus the standard deviation of three determinations. **p<0.01 and *p<0.05 compared to the etoposide-treated (control) cells."}, "[4]": {"test_system": "light-chain immunoglobulin-secreting human myeloma cells", "assay": "Carmustine-induced apoptotic cell death of myeloma cells", "assay_type": "cell-based", "protocol": "(§1) The light-chain immunoglobulin-secreting human myeloma cells were cultured in RPMI 1640 medium supplemented with 10% non-inactivated fetal bovine serum and 0.05 mM 2-mercaptoethanol. The effects of PACAP38, and [Ala^22]PACAP38 on apoptotic cell death was assessed by the quantitative determination of cytoplasmic histone-associated DNA-fragmentation (mono- and oligonucleosomes) after exposure to carmustine for 48 hours. Each value represents the mean plus/minus the standard deviation of three determinations. **p<0.01 and *p<0.05 compared to the carmustine-treated (control) cells."}, "[5]": {"test_system": "MCF-7 human breast cancer cells", "assay": "Doxorubicin-induced apoptotic cell death of breast cancer cells", "assay_type": "cell-based", "conditions": "MCF-7 cells", "protocol": "The MCF-7 human breast cancer cells were cultured in Eagle's Minimum Essential Medium supplemented with 10% non-inactivated fetal bovine serum and 0.05 mM 2-mercaptoethanol. The effects of PACAP38 and N-acetyl[Ala^16,17,D-Lys^38]PACAP38 on apoptotic cell death were assessed by the quantitative determination of cytoplasmic histone-associated DNA-fragmentation (mono- and oligonucleosomes) after exposure to doxorubicin for 48 hours. Each value represents the mean plus/minus the standard deviation of three determinations. **p<0.01 compared to the doxorubicin-treated (control) cells.\nAt the highest dose tested (10^−6 M), both peptides reduced the apoptotic cell death of these breast cancer cells by more than 50%."}, "[6]": {"conditions": "rat, in vivo, iv; cited from earlier work"}, "[7]": {"test_system": "Male C57BL/6 mice", "assay": "Cisplatin-induced nephrotoxicity in mice", "assay_type": "in vivo, mouse", "conditions": "cisplatin 20 mg/kg i.p., FIG. 10", "protocol": "(§2) Male C57BL/6 mice were given a single intraperitoneal injection of 20 mg/kg of cisplatin. Twenty nanomoles of PACAP38 were given intraperitoneally 1 hour before the injection of cisplatin and additional doses were given at 24 and 48 hours after the initial dose. The control group of mice was injected intraperitoneally with the same volume of saline as for the injections of cisplatin and PACAP38 on the same schedule. The mice were euthanized 24 hours after the final injection of PACAP38. Each value represents the mean plus/minus the standard error of four determinations. ***p<0.001 and **p<0.01 compared to the group treated only with cisplatin.\nas §2, with “PACAP38. TNF-α was extracted from one kidney of each mouse and quantified with an enzyme-linked immunosorbent assay.” for “PACAP38.”\nMale C57BL/6 mice were given a single intraperitoneal injection of 20 mg/kg of cisplatin. Twenty nanomoles of PACAP38 were given intraperitoneally 1 hour before the injection of cisplatin and additional doses were given at 24 and 48 hours after the initial dose. The control group of mice were injected intraperitoneally with the same volume of saline as for the injections of cisplatin and PACAP38 on the same schedule. The mice were euthanized 24 hours after the final injection of PACAP38, and the kidneys were removed and fixed in 10% formalin. The fixed sections were stained with hematoxylin and eosin. The sections of the kidneys from control mice show intact renal tubular epithelial cells and well-preserved brush border membranes. The kidneys from mice treated with cisplatin had extensive tubular damage, tubular dilations, intratubular debris, and intratubular casts. […] Tubular damage was more pronounced in the outer cortex in the cisplatin treated mice. The photomicrographs on the left side were made at a lower magnification (×160) than the photomicrographs on the right side (×320). The results described in FIGS. 5, 6, 7, and 8 were from the same experiment.\nas §2, with “six” for “four”\nas §2, with “The cytoprotective effect of PACAP38 against cisplatin-induced nephrotoxicity was also seen in a common in vivo model. Male” for “Male”, “PACAP38.” for “PACAP38. Each value represents the mean plus/minus the standard error of four determinations. ***p<0.001 and **p<0.01 compared to the group treated only with cisplatin.”"}, "[8]": {"test_system": "HK-2 human kidney cells", "assay": "Doxorubicin-induced apoptotic cell death of human renal proximal tubule epithelial cells", "assay_type": "cell-based", "conditions": "HK-2 cells, peptide added to the medium, FIG. 11", "protocol": "The HK-2 human kidney cells were cultured in Keratinocyte-Serum Free Medium supplemented with recombinant epidermal growth factor and bovine pituitary extract. […] Each value represents the mean plus/minus the standard deviation of four determinations in three replicate experiments. **p<0.01 and *p<0.05 compared to the doxorubicin-treated (control) cells.\nAt the highest dose tested (10^−6 M), all three peptides reduced the apoptotic cell death of these epithelial cells by more than 60%."}, "[9]": {"test_system": "L-132 human lung cells", "assay": "Bleomycin-induced apoptotic cell death of human pulmonary epithelial cells", "assay_type": "cell-based", "conditions": "L-132 cells, peptide added to the medium, FIG. 12", "protocol": "The L-132 human lung cells were cultured in Eagle's Minimum Essential Medium supplemented with 10% fetal bovine serum. […] Each value represents the mean plus/minus the standard deviation of four determinations in three replicate experiments. **p<0.01 and *p<0.05 compared to the bleomycin-treated (control) cells.\nAt the highest dose tested (10^−6 M), all three peptides reduced the apoptotic cell death of these epithelial cells by more than 60%. […] Therefore, pre- and/or post-treatment of subjects undergoing bleomycin-based cancer chemotherapy with therapeutic doses of PACAP38 and/or PACAP analogs should result in a higher maximal tolerable dose of bleomycin, and an increased frequency of partial clinical responses and/or an increased number of complete remissions."}, "[10]": {"test_system": "PC-12 rat pheochromocytoma cells", "assay": "Cisplatin-induced apoptotic cell death of pheochromocytoma cells", "assay_type": "cell-based", "conditions": "PC-12 cells", "protocol": "The PC-12 rat pheochromocytoma cells were cultured in F-12K medium supplemented with 15% horse serum and 2.5% fetal bovine serum. The dose-dependent inhibitory effects of PACAP38 and the PACAP38 analogs on apoptotic cell death were assessed by the quantitative determination of cytoplasmic histone-associated DNA-fragmentation (mono- and oligonucleosomes) after exposure to cisplatin for 24 hours. Each value represents the mean plus/minus the standard error of four determinations. **p<0.01 and *p<0.05 compared to the cisplatin-treated (control) cells."}, "[11]": {"test_system": "PC-3 human prostate cancer cells", "conditions": "nude mice, PC-3 cells; cited from earlier work"}, "[12]": {"test_system": "NCI-H838 human non-small cell lung cancer cells", "conditions": "nude mice; cited from earlier work"}, "[13]": {"test_system": "MCF-7 human breast cancer cells", "conditions": "nude mice, MCF-7 cells; cited from earlier work"}, "[14]": {"test_system": "light-chain immunoglobulin-secreting human myeloma cells", "assay": "Doxorubicin-induced apoptotic cell death of myeloma cells", "assay_type": "cell-based", "protocol": "as §1, with “[Ala^16,17,D-Lys^38]PACAP38” for “[Ala^22]PACAP38”, “doxorubicin” for “carmustine”, “doxorubicin-treated” for “carmustine-treated”\nAt the lowest dose tested (10^−8 M), both peptides reduced the doxorubicin-induced apoptotic cell death of these malignant plasma cells."}, "[15]": {"test_system": "HK-2 human kidney cells", "assay": "Cisplatin-induced apoptotic cell death of human renal proximal tubule epithelial cells (histone-associated DNA fragmentation)", "assay_type": "cell-based", "conditions": "HK-2 cells, comparable concentrations, FIG. 4", "protocol": "(§3) The HK-2 human kidney cells were cultured in Keratinocyte-Serum Free Medium supplemented with recombinant epidermal growth factor and bovine pituitary extract. The dose-dependent inhibitory effect of PACAP38 on apoptotic cell death was assessed by the quantitative determination of cytoplasmic histone-associated DNA-fragmentation (mono- and oligonucleosomes) after exposure to cisplatin for 24 hours. Each value represents the mean plus/minus the standard error of four determinations in three replicate experiments. **p<0.01 compared to the cisplatin-treated (control) cells.\nas §3, with “deviation” for “error”, “different” for “replicate”, “**p<0.01 and *p<0.05” for “**p<0.01”"}}, "note": "Square brackets hold non-standard residues; d marks the D form. Ends that are not written are not given here."}
{"substance": "pituitary adenylate cyclase-activating polypeptide [PACAP]", "values": [{"measurement": "peak of bimodal dose-response curve for prevention of gp120-induced neuronal death (lower peak)", "setting": "[1]", "result": "10^−13 M"}, {"measurement": "peak of bimodal dose-response curve for prevention of gp120-induced neuronal death (upper peak)", "setting": "[1]", "result": "10^−10 M"}, {"measurement": "untoward effect reported", "setting": "[2]", "result": "transient flushing"}]}
{"substance": "PACAP27 (HSDGIFTDSYSRYRKQMAVKKYLAAVL-NH2)", "values": [{"measurement": "reduction in etoposide-induced apoptotic cell death", "setting": "[3]; etoposide 48 hours, FIG. 15", "result": "small reduction"}, {"measurement": "significance of the reduction of etoposide-induced apoptotic cell death", "setting": "[3]; highest dose tested 10^−6 M", "result": "did not have a significant effect"}]}
{"substance": "[Ala^22]PACAP38 (HSDGIFTDSYSRYRKQMAVKKALAAVLGKRYKQRVKNK; ends and bridges not checked)", "values": [{"measurement": "effect on carmustine-induced apoptotic cell death", "setting": "[4]; carmustine 48 hours, FIG. 17", "result": "enhancement"}, {"measurement": "effect on carmustine-induced apoptotic cell death", "setting": "[4]; highest dose tested (10^−6 M)", "result": "significantly enhanced"}]}
{"substance": "N-acetyl[Ala^16,17,D-Lys^38]PACAP38", "values": [{"measurement": "relative potency in reducing doxorubicin-induced apoptotic cell death", "setting": "[5]", "result": "slightly more potent than PACAP38"}, {"measurement": "reduction in doxorubicin-induced apoptotic cell death", "setting": "[5]; doxorubicin 48 hours, FIG. 14", "result": "dose-dependent reduction"}]}
{"substance": "[^125I]-PACAP38", "values": [{"measurement": "half-life in the bloodstream", "setting": "[6]", "result": "5 to 6", "unit": "min"}]}
{"substance": "[D-Ser^2,Lys^38-palmitoyl]PACAP38", "values": [{"measurement": "relative potency as cytoprotectants against cisplatin-induced impairment of kidney function (serum creatinine)", "setting": "[7]", "result": "less potent"}]}
{"substance": "[Lys^34]PACAP38 (HSDGIFTDSYSRYRKQMAVKKYLAAVLGKRYKQKVKNK; ends and bridges not checked)", "values": [{"measurement": "reduction in doxorubicin-induced apoptotic cell death", "setting": "[8]", "result": "significant dose-dependent reduction"}, {"measurement": "reduction in bleomycin-induced apoptotic cell death", "setting": "[9]", "result": "significant dose-dependent reduction"}, {"measurement": "reduction in cisplatin-induced apoptotic cell death", "setting": "[10]; cisplatin 24 hours, FIG. 13", "result": "dose-dependent reduction"}, {"measurement": "reduction of cisplatin-induced apoptotic cell death", "setting": "[10]; highest dose tested (10^−6 M)", "result": "significantly reduced"}]}
{"substance": "PACAP(6-38) (FTDSYSRYRKQMAVKKYLAAVLGKRYKQRVKNK; ends and bridges not checked; UniProt P18509 137-169, looked up, fragment) [a PACAP/VIP receptor antagonist]", "values": [{"measurement": "growth of xenografts", "setting": "[11]", "result": "inhibited the growth"}, {"measurement": "growth of xenografts", "setting": "[12]", "result": "inhibited the growth"}, {"measurement": "growth of xenografts", "setting": "[13]", "result": "inhibited the growth"}]}
{"substance": "[Ala^16,Ala^17,D-Lys^38]PACAP38 (HSDGIFTDSYSRYRKAAAVKKYLAAVLGKRYKQRVKN[dK]; ends and bridges not checked) [[Ala^16,17,D-Lys^38]PACAP38]", "values": [{"measurement": "effect on doxorubicin-induced apoptotic cell death (dose-response)", "setting": "[14]; doxorubicin 48 hours, FIG. 16", "result": "biphasic dose-response effect"}, {"measurement": "effect on doxorubicin-induced apoptotic cell death", "setting": "[14]; highest dose tested (10^−6 M)", "result": "small, but not significant, enhancement"}, {"measurement": "effect on doxorubicin-induced apoptotic cell death", "setting": "[14]; lowest dose tested (10^−8 M)", "result": "reduced"}]}
{"substance": "[Aib^2]PACAP38", "values": [{"measurement": "relative effectiveness as protectants against cisplatin-induced apoptotic cell death", "setting": "[15]", "result": "similarly effective"}]}
